{"source": "patent US11856970B2", "about": "“Bacillus subtilis for animal feed” (CHR. HANSEN A/S, priority 2018, dated 2024)", "tested_on": "E. coli", "assay": "Agar well diffusion, screening for inhibition of E. coli", "type": "cell-based, Escherichia coli", "conditions": "E. coli O147:K89 F4 H19", "experimental": "The seven pathogenic E. coli and Salmonella spp. strains were each suspended in MRD until McFarland 0.5 was obtained and 10 μL of each pathogen suspension was diluted in approximately 35 ml melted LB agar (max. 42° C.). The inoculated agar was poured into Omni Tray Single-well plates, Immuno TSP plates were attached. After drying the immune TSP plates were removed and the wells were inoculated with 5 μL overnight culture (triplicates) of Bacillus test strains. The plates were incubated aerobically at 30° C. for 48 hours. For the E. coli plates, two replicate plates were used (n=2); for the 10 Salmonella spp. plates, one replicate plate was used (n=1).\nThe following positioning of the Bacillus subtilis strains on the plates containing the pathogens was used:\nThe concentration of E. coli and Salmonella spp. in the inoculated agar was estimated to be 2.9×10^4 CFU/ml."}
{"compound": "O=C(O)c1cn(C2CC2)c2cc(N3CCNCC3)c(F)cc2c1=O", "note": "[ciprofloxacin]", "values": [{"measurement": "inhibition zones (FIG. 2, in words)", "value": "Inhibition is also seen"}]}
